Data: patent US20250340551A1, “SMALL MOLECULE MODULATORS OF STAT6” (Gilead Sciences, Inc., priority 2024, published 2025)

What follows are molecules tested against human STAT6 (Homo sapiens (Human), UniProt P42226) (assay: Surface plasmon resonance assay (Biacore 8K, binding to immobilized STAT6)). Details: human STAT6 aa122-658, N-terminal His-tag, CM5 chip, 25° C.; geometric mean; read-out: STAT6 SPR Kd.
human STAT6, sequence (P42226 122-658): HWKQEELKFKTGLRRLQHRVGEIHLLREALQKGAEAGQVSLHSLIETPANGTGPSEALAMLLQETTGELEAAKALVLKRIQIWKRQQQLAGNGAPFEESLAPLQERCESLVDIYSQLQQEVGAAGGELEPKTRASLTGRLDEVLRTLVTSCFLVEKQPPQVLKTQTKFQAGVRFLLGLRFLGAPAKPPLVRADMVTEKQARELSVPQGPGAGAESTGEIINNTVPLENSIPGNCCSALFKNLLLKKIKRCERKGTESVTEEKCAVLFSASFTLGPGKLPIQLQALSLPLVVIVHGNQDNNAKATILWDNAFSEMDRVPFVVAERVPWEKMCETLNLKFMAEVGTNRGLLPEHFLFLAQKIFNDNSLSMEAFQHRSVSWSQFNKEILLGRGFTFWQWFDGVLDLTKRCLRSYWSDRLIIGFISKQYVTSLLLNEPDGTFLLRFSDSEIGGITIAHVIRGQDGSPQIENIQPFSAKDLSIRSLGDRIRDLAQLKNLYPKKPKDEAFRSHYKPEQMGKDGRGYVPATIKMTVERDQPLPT
Experimental: Biacore instruments from the 8K-series (Cytiva) were used, and measurements were performed at 25° C. Human STAT6 (truncated, aa122-658, with N-terminal His-tag, expressed in insect cells) was immobilized in the active flow cells on a CM5 chip using amine-coupling (default settings) at 10 μg/ml in 10 mM acetate buffer pH 5.5, at a contact time of 120-420 sec. and a flow rate of 10 μl/min. Reference flow cells were deactivated using blank immobilization. PBS-P+ (Cytiva) supplemented with 2% DMSO was used as running buffer, and solvent correction was applied. Compounds were tested by multi-cycle kinetics injections using a contact time of 60 sec., dissociation time of up to 300 sec., and a flow rate of 30 μl/min.
Solvent-corrected, reference-subtracted and blank-corrected data was processed and binding isotherms were fitted according to a single report point from each sensorgram (Standard: Late binding (5 sec. before injection end); alternative: Earlier report point according to binding profile). Data fitting was done both with unfixed Rmax and with Rmax fixed to the theoretical value* assuming 1:1 binding to allow processing of data from both weak and strong binders as well as to evaluate binding stoichiometry.
Positive controls were run at the beginning, during, and at the end of the screen to evaluate surface activity.
For `C[C@@H](c1cc2c(-c3ccc(N)cn3)ccnc2n1C)N1CC=C(c2ccc(C(=O)N(C)C)cc2)CC1` [Example 1af19, (S)-4-(1-(1-(4-(5-Aminopyridin-2-yl)-1-methyl-1H-pyrrolo[2,3-b]pyridin-2-yl)ethyl)-1,2,3,6-tetrahydropyridin-4-yl)-N,N-dimethylbenzamide], the Kd was 2360 nM.
Work on `C[C@@H](c1cc2c(-c3ccc(N)nc3C#N)ccnc2n1C)N1CC=C(c2ccc(C(=O)N(C)C)cc2)CC1` [Example 1af21, (S)-4-(1-(1-(4-(6-amino-2-cyanopyridin-3-yl)-1-methyl-1H-pyrrolo[2,3-b]pyridin-2-yl)ethyl)-1,2,3,6-tetrahydropyridin-4-yl)-N,N-dimethylbenzamide] yielded a Kd of 8660 nM.
`C[C@H](c1cc2c(-c3ccc(N)nc3C#N)ccnc2n1C)N1CC=C(c2ccc(C(=O)N(C)C)cc2)CC1` [Example 1af23, (R)-4-(1-(1-(4-(6-amino-2-cyanopyridin-3-yl)-1-methyl-1H-pyrrolo[2,3-b]pyridin-2-yl)ethyl)-1,2,3,6-tetrahydropyridin-4-yl)-N,N-dimethylbenzamide] was tested, and the Kd was 45.2 nM.
With `[2H]C([2H])([2H])N(C(=O)c1ccc(C2=CCN([C@@H](C)c3cc4c(-c5ccc(N)nc5C#N)ccnc4n3C)CC2)c(C)c1)C([2H])([2H])[2H]` [Example 1af25, (S)-4-(1-(1-(4-(6-amino-2-cyanopyridin-3-yl)-1-methyl-1H-pyrrolo[2,3-b]pyridin-2-yl)ethyl)-1,2,3,6-tetrahydropyridin-4-yl)-3-methyl-N,N-bis(methyl-d3)benzamide] the Kd was 361 nM.
`Cc1cc(C(=O)N(C)C)ccc1C1CCN([C@@H](C)c2cc3c(-c4ccc(N)nc4C#N)ccnc3n2C)CC1` [Example 1af27, (S)-4-(1-(1-(4-(6-Amino-2-cyanopyridin-3-yl)-1-methyl-1H-pyrrolo[2,3-b]pyridin-2-yl)ethyl)piperidin-4-yl)-N,N,3-trimethylbenzamide] showed a Kd of 66.5 nM.
In the case of `Cc1cc(C(=O)N(C)C)ccc1C1CCN([C@H](C)c2cc3c(-c4ccc(N)nc4C#N)ccnc3n2C)CC1` [Example 1af28, (R)-4-(1-(1-(4-(6-amino-2-cyanopyridin-3-yl)-1-methyl-1H-pyrrolo[2,3-b]pyridin-2-yl)ethyl)piperidin-4-yl)-N,N,3-trimethylbenzamide], the Kd is reported as 5310 nM.
Molecule `[2H]C([2H])([2H])N(C(=O)c1ccc(C2CCN([C@@H](C)c3cc4c(-c5ccc(N)nc5C#N)ccnc4n3C)CC2)cc1)C([2H])([2H])[2H]` [Example 1af29, (S)-4-(1-(1-(4-(6-Amino-2-cyanopyridin-3-yl)-1-methyl-1H-pyrrolo[2,3-b]pyridin-2-yl)ethyl)-piperidin-4-yl)-N,N-bis(methyl-d3)benzamide] has a Kd of 645 nM.
Work on `[2H]C([2H])([2H])N(C(=O)c1ccc(C2CCN([C@H](C)c3cc4c(-c5ccc(N)nc5C#N)ccnc4n3C)CC2)cc1)C([2H])([2H])[2H]` [Example 1af30, (R)-4-(1-(1-(4-(6-amino-2-cyanopyridin-3-yl)-1-methyl-1H-pyrrolo[2,3-b]pyridin-2-yl)ethyl)piperidin-4-yl)-N,N-bis(methyl-d3)benzamide] yielded a Kd of 24.1 nM.
With `[2H]C([2H])([2H])N(C(=O)c1ccc(C2=CCN([C@@H](C)c3cc4c(-c5ccc(N)cn5)ccnc4n3C)CC2)c(C)c1)C([2H])([2H])[2H]` [Example 1af31, (S)-4-(1-(1-(4-(5-aminopyridin-2-yl)-1-methyl-1H-pyrrolo[2,3-b]pyridin-2-yl)ethyl)-1,2,3,6-tetrahydropyridin-4-yl)-3-methyl-N,N-bis(methyl-d3)benzamide] the Kd was 169 nM.
`Cc1cc(C(=O)N(C)C)ccc1C1=CCN([C@@H](C)c2cc3c(-c4ccc(N)cn4)ccnc3n2C)CC1` [Example 1af32, (S)-4-(1-(1-(4-(5-Aminopyridin-2-yl)-1-methyl-1H-pyrrolo[2,3-b]pyridin-2-yl)ethyl)-1,2,3,6-tetrahydropyridin-4-yl)-N,N,3-trimethylbenzamide] was tested, and the Kd was 286 nM.
`[2H]C([2H])([2H])N(C(=O)c1ccc(C2=CCN([C@H](C)c3cc4c(-c5ccc(N)cn5)ccnc4n3C)CC2)c(C)c1)C([2H])([2H])[2H]` [Example 1af33, (R)-4-(1-(1-(4-(5-aminopyridin-2-yl)-1-methyl-1H-pyrrolo[2,3-b]pyridin-2-yl)ethyl)-1,2,3,6-tetrahydropyridin-4-yl)-3-methyl-N,N-bis(methyl-d3)benzamide] was tested, and the Kd was 15.4 nM.
`Cc1cc(C(=O)N(C)C)ccc1C1=CCN([C@H](C)c2cc3c(-c4ccc(N)cn4)ccnc3n2C)CC1` [Example 1af34, (R)-4-(1-(1-(4-(5-aminopyridin-2-yl)-1-methyl-1H-pyrrolo[2,3-b]pyridin-2-yl)ethyl)-1,2,3,6-tetrahydropyridin-4-yl)-N,N,3-trimethylbenzamide] was tested, and the Kd was 18.6 nM.
Molecule `[2H]C([2H])([2H])N(C(=O)c1ccc(C2CCN([C@@H](C)c3cc4c(-c5ccc(N)cn5)ccnc4n3C)CC2)cc1)C([2H])([2H])[2H]` [Example 1af35, (S)-4-(1-(1-(4-(5-Aminopyridin-2-yl)-1-methyl-1H-pyrrolo[2,3-b]pyridin-2-yl)-ethyl)piperidin-4-yl)-N,N-bis(methyl-d3)benzamide] has a Kd of 605 nM.
For `[2H]C([2H])([2H])N(C(=O)c1ccc(C2CCN([C@H](C)c3cc4c(-c5ccc(N)nc5C#N)ccnc4n3C)CC2)c(C)c1)C([2H])([2H])[2H]` [Example 1af38, (R)-4-(1-(1-(4-(6-amino-2-cyanopyridin-3-yl)-1-methyl-1H-pyrrolo[2,3-b]pyridin-2-yl)ethyl)-piperidin-4-yl)-3-methyl-N,N-bis(methyl-d3)benzamide], the Kd was 5270 nM.
For `[2H]C([2H])([2H])N(C(=O)c1ccc(C2CCN([C@@H](C)c3cc4c(-c5ccc(N)cn5)ccnc4n3C)CC2)c(C)c1)C([2H])([2H])[2H]` [Example 1af41, (S)-4-(1-(1-(4-(5-Aminopyridin-2-yl)-1-methyl-1H-pyrrolo[2,3-b]pyridin-2-yl)ethyl)-piperidin-4-yl)-3-methyl-N,N-bis(methyl-d3)benzamide], the Kd was 3300 nM.
In the case of `[2H]C([2H])([2H])N(C(=O)c1ccc(C2=CCN([C@@H](C)c3cc4c(-c5ccc(N)cn5)ccnc4n3C)CC2)cc1)C([2H])([2H])[2H]` [Example 1af43, (S)-4-(1-(1-(4-(5-Aminopyridin-2-yl)-1-methyl-1H-pyrrolo[2,3-b]pyridin-2-yl)ethyl)-1,2,3,6-tetrahydropyridin-4-yl)-N,N-bis(methyl-d3)benzamide], the Kd is reported as 2950 nM.
With `CNC(=O)c1ccc(-c2ccnc3c2cc(CN2CCN(c4ccc(C(=O)N(C)C)cc4)CC2)n3C)cc1` [Example 1j6, 4-[2-[[4-[4-(Dimethylcarbamoyl)phenyl]piperazin-1-yl]methyl]-1-methyl-pyrrolo[2,3-b]pyridin-4-yl]-N-methyl-benzamide] the Kd was 37200 nM.
In the case of `CNC(=O)c1ccc(-c2ccnc3c2cc(CN2CCC(c4ccc(C(=O)N(C)C)cc4)CC2)n3C)cc1` [Example 1j7, 4-[2-[[4-[4-(Dimethylcarbamoyl)phenyl]-1-piperidyl]methyl]-1-methyl-pyrrolo[2,3-b]pyridin-4-yl]-N-methyl-benzamide], the Kd is reported as 3450 nM.
In the case of `CN(C)C(=O)c1ccc(C2CCN(Cc3cc4c(-c5ccc(N)c(C(=O)C(=O)O)c5)ccnc4n3C)CC2)cc1` [Example 1j13, 2-(2-Amino-5-(2-((4-(4-(dimethylcarbamoyl)phenyl)piperidin-1-yl)methyl)-1-methyl-1H-pyrrolo[2,3-b]pyridin-4-yl)phenyl)-2-oxoacetic acid], the Kd is reported as 12.8 nM.
For `CC(=O)Nc1ccc(-c2ccnc3c2cc(CN2CCC(c4ccc(C(=O)N(C)C)cc4)CC2)n3C)cn1` [Example 1k2, 4-[1-[[4-(6-Acetamido-3-pyridyl)-1-methyl-pyrrolo[2,3-b]pyridin-2-yl]methyl]-4-piperidyl]-N,N-dimethyl-benzamide], the Kd was 64 nM.
`CN(C)C(=O)c1ccc(C2CCN(Cc3cc4c(-c5cnc(N)cn5)ccnc4n3C)CC2)cc1` [Example 1k8, 4-[1-[[4-(5-Aminopyrazin-2-yl)-1-methyl-pyrrolo[2,3-b]pyridin-2-yl]methyl]-4-piperidyl]-N,N-dimethyl-benzamide] was tested, and the Kd was 457 nM.
In the case of `CN(C)C(=O)c1ccc(C2CCN(Cc3cc4c(-c5cnc(N)c(C(=O)O)c5)ccnc4n3C)CC2)cc1` [Example 1k9, 2-Amino-5-[2-[[4-[4-(dimethylcarbamoyl)phenyl]-1-piperidyl]methyl]-1-methyl-pyrrolo[2,3-b]pyridin-4-yl]pyridine-3-carboxylic acid], the Kd is reported as 144 nM.
In the case of `COC(=O)c1cc(-c2ccnc3c2cc(CN2CCC(c4ccc(C(=O)N(C)C)cc4)CC2)n3C)cnc1N` [Example 1k10, Methyl 2-amino-5-[2-[[4-[4-(dimethylcarbamoyl)phenyl]-1-piperidyl]methyl]-1-methyl-pyrrolo[2,3-b]pyridin-4-yl]pyridine-3-carboxylate], the Kd is reported as 2630 nM.
In the case of `CN(C)C(=O)c1ccc(C2CCN(Cc3cc4c(-c5cnc(N)cc5F)ccnc4n3C)CC2)cc1` [Example 1k15, 4-[1-[[4-(6-Amino-4-fluoro-3-pyridyl)-1-methyl-pyrrolo[2,3-b]pyridin-2-yl]methyl]-4-piperidyl]-N,N-dimethyl-benzamide], the Kd is reported as 38.9 nM.
With `[2H]C([2H])([2H])N(C(=O)c1ccc(C2CCN(Cc3cc4c(-c5cnc(N)cc5F)ccnc4n3C)CC2)cc1)C([2H])([2H])[2H]` [Example 1k16, 4-[1-[[4-(6-Amino-4-fluoro-3-pyridyl)-1-methyl-pyrrolo[2,3-b]pyridin-2-yl]methyl]-4-piperidyl]-N,N-bis(trideuteriomethyl)benzamide] the Kd was 22.6 nM.
